Assay results published in ChEMBL document CHEMBL1156278, “Novel benzothiophene H1-antihistamines for the treatment of insomnia” (Bioorg Med Chem Lett, 2010).
Calls of active or inactive are those of the source. The calls are words filed in the database; no cut-off is given here.

How the values were obtained:
[1] = target: Cytochrome P450 3A4 (Homo sapiens, UniProt P08684); assay: Inhibition of recombinant CYP3A4 after 30 mins by fluorescence assay
[2] = target: T1, Muscarinic acetylcholine receptor M1 (Homo sapiens, UniProt P11229); assay: Displacement of [3H]N-methylscopolamine from human muscarinic M1 receptor expressed in CHO Flp-In cells after 90 mins by scintillation counting; type: cell-based
T1 sequence (P11229 whole entry): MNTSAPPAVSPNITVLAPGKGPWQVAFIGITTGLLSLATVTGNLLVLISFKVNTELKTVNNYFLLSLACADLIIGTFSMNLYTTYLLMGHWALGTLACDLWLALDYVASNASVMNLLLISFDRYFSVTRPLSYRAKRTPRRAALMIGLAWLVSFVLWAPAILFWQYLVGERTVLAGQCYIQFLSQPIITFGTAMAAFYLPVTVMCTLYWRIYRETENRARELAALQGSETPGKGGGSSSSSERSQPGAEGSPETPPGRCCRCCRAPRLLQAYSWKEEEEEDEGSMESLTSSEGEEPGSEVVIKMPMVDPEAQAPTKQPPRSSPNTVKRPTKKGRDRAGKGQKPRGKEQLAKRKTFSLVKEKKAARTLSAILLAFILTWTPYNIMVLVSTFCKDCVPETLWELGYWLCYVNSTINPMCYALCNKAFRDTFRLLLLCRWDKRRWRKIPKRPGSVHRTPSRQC

[3] = target: Histamine H1 receptor (Homo sapiens, UniProt P35367); assay: Displacement of [3H]pyrilamine from human histamine H1 receptor expressed in CHO Flp-In cells after 90 mins by scintillation counting; type: cell-based
Chain of Histamine H1 receptor (P35367 whole entry): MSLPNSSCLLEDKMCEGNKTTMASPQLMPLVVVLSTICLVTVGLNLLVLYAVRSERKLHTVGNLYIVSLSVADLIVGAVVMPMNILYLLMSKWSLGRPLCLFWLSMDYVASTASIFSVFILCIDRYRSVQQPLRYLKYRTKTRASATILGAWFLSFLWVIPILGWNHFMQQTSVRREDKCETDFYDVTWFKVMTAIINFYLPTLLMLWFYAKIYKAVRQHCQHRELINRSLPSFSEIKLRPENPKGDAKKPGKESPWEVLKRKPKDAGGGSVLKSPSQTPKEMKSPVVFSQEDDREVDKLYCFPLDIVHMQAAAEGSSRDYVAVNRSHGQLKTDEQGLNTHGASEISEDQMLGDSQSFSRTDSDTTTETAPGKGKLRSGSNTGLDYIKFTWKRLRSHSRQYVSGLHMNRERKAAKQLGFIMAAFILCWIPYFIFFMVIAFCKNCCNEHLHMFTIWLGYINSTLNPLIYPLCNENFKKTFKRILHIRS

[4] = target: T2, Voltage-gated inwardly rectifying potassium channel KCNH2 (Homo sapiens, UniProt Q12809); assay: Displacement of [3H]Dofetilide from human ERG
T2 sequence (Q12809 whole entry): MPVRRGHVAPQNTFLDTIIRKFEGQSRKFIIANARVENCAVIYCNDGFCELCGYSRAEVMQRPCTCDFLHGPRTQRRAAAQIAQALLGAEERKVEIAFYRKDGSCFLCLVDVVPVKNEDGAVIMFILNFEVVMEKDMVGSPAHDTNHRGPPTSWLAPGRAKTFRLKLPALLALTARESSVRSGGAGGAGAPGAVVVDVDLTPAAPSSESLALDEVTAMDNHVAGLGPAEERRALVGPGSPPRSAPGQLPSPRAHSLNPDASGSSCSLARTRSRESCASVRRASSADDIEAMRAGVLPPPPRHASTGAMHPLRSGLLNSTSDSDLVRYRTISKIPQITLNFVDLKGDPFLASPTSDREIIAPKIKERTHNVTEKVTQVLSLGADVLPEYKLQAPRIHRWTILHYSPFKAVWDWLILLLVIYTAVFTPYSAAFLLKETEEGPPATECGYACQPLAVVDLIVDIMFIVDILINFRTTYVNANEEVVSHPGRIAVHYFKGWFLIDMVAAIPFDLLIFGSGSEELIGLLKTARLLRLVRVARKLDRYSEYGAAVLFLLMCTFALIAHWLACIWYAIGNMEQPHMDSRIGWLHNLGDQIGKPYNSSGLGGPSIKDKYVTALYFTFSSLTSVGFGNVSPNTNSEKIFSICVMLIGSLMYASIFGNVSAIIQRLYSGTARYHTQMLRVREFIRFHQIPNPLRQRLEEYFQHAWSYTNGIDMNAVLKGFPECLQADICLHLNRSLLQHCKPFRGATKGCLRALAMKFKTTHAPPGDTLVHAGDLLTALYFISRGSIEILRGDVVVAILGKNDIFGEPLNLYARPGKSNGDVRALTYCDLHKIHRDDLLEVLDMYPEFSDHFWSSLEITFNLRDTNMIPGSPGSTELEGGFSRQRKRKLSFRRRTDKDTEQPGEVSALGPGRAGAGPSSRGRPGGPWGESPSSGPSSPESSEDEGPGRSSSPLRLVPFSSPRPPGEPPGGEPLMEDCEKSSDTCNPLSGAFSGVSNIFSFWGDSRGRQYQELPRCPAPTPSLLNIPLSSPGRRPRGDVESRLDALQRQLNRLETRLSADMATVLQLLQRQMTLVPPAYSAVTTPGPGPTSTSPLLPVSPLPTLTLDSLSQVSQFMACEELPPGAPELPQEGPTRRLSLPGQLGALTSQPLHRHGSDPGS

[5] = system: Rattus norvegicus; assay: Effect on sleep-awake pattern in CD IGS rat model of insomnia assessed as latency to NREM sleep at 30 mg/kg, po by EEG/EMG study relative to control; type: functional
[6] = system: Rattus norvegicus; assay: Effect on sleep-awake pattern in CD IGS rat model of insomnia assessed as latency to REM sleep at 30 mg/kg, po by EEG/EMG study relative to control; type: functional
[7] = system: Rattus norvegicus; assay: Effect on sleep-awake pattern in CD IGS rat model of insomnia assessed as longest 3 NREM bouts at 30 mg/kg, po after 6 hrs by EEG/EMG study relative to control; type: functional
[8] = system: Rattus norvegicus; assay: Increase in REM sleep in CD IGS rat model of insomnia at 30 mg/kg, po after 4 hrs by EEG/EMG study relative to control; type: functional
[9] = system: Rattus norvegicus; assay: Effect on sleep-awake pattern in CD IGS rat model of insomnia assessed as longest 3 REM bouts at 30 mg/kg, po after 6 hrs by EEG/EMG study relative to control; type: functional
[10] = system: Rattus norvegicus; assay: Increase in NREM sleep in CD IGS rat model of insomnia at 30 mg/kg, po after 4 hrs by EEG/EMG study relative to control; type: functional
[11] = target: Cytochrome P450 2D6 (Homo sapiens, UniProt P10635); assay: Inhibition of recombinant CYP2D6 after 30 mins by fluorescence assay
Chain of Cytochrome P450 2D6 (P10635 whole entry): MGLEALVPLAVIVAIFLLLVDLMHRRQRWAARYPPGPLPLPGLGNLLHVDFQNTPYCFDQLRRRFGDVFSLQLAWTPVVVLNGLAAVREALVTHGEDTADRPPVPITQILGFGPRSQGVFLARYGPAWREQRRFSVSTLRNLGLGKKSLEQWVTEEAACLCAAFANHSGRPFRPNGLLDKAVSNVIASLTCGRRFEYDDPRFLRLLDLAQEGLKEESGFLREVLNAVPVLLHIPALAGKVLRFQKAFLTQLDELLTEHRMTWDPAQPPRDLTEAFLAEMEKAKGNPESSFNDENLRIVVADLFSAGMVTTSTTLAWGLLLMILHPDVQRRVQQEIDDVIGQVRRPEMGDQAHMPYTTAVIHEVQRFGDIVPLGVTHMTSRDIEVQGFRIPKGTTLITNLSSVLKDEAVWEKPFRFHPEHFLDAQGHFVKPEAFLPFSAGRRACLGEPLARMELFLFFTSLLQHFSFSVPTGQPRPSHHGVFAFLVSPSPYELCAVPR

[12] = target: T2, Voltage-gated inwardly rectifying potassium channel KCNH2; assay: Inhibition of human ERG expressed in HEK cells assessed as blockade of potassium tail current by standard patch clamp analysis
[13] = system: Caco-2; assay: Ratio of permeability from apical to basolateral side over basolateral to apical side in human Caco-2 cells
[14] = Activity at P-glycoprotein
[15] = Drug level in rat brain at 30 mg/kg, po after 4 hrs; type: ADME, organism-based; parameters: dose 30 mg/kg, route oral; conditions: read-out: Drug uptake
[16] = Ratio of drug level in rat brain to plasma at 30 mg/kg, po after 4 hrs; type: ADME, organism-based; parameters: dose 30 mg/kg, route oral
[17] = Apparent permeability across human Caco-2 cells; type: ADME, cell-based
[18] = Drug level in rat plasma at 30 mg/kg, po after 4 hrs; type: ADME, organism-based; parameters: dose 30 mg/kg, route oral
[19] = system: Rattus norvegicus; assay: Effect on sleep-awake pattern in CD IGS rat model of insomnia assessed as latency to REM sleep at 60 mg/kg, po by EEG/EMG study relative to control; type: functional
[20] = system: Rattus norvegicus; assay: Increase in REM sleep in CD IGS rat model of insomnia at 60 mg/kg, po after 4 hrs by EEG/EMG study relative to control; type: functional
[21] = system: Rattus norvegicus; assay: Effect on sleep-awake pattern in CD IGS rat model of insomnia assessed as latency to NREM sleep at 60 mg/kg, po by EEG/EMG study relative to control; type: functional
[22] = system: Rattus norvegicus; assay: Increase in NREM sleep in CD IGS rat model of insomnia at 60 mg/kg, po after 4 hrs by EEG/EMG study relative to control; type: functional
[23] = system: Rattus norvegicus; assay: Effect on sleep-awake pattern in CD IGS rat model of insomnia assessed as longest 3 NREM bouts at 60 mg/kg, po after 6 hrs by EEG/EMG study relative to control; type: functional
[24] = system: Rattus norvegicus; assay: Effect on sleep-awake pattern in CD IGS rat model of insomnia assessed as longest 3 REM bouts at 60 mg/kg, po after 6 hrs by EEG/EMG study relative to control; type: functional

Chain of Cytochrome P450 3A4 (P08684 whole entry): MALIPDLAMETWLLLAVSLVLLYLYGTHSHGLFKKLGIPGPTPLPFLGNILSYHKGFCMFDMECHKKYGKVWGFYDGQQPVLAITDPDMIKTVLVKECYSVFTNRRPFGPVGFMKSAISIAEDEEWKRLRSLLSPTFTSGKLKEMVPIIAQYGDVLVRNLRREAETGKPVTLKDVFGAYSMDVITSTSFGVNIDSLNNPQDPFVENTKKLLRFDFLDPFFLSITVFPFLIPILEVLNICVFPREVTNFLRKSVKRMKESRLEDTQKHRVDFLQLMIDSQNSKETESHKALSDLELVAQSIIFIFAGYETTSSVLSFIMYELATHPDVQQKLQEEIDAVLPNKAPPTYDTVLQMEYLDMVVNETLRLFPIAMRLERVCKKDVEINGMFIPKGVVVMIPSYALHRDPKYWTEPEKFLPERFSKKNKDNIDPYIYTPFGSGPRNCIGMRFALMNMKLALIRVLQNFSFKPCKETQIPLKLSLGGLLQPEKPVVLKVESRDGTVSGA

SMILES | IC50 [1] [µM] | Ki ([2]; read-out: Ki) [µM] | Ki ([3]; read-out: Ki) [µM] | Ki [4] [µM] | IC50 [11] [µM] | IC50 [12] [µM] | also measured
CC(c1cccc(F)n1)c1c(CCN(C)C)sc2ccccc12 (racemic) | > 10 | > 10 | 0.038 | > 5 |  |  | 
CC(c1c(CCN(C)C)sc2ccccc12)n1ccnc1 (racemic) | 5.2 |  | 0.122 | > 5 |  |  | 
Cc1ccc(-c2nc3ccc(C)cn3c2CC(=O)N(C)C)cc1 [ZOLPIDEM] |  |  |  |  |  |  | Activity [5]: 6 min; Activity [6]: 101 min; Activity [7]: 14.5 min; Activity [8]: 2.3%; Activity [9]: 1.2 min; Activity [10]: 47.8%
Cc1ccc(C(C)c2c(CCN(C)C)sc3ccccc23)cn1 (racemic) | > 10 | > 10 | 0.069 | > 5 |  |  | 
CNCCc1sc2ccccc2c1[C@@H](C)c1ccccn1 | > 10 |  | 0.032 | > 5 | 9.8 | 6.5 | Ki [2]: 3.7 µM
C[C@@H](c1ccccn1)c1c(CCN2CCCC2)sc2ccccc12 | > 10 | 5.8 |  | 1.1 | 2.7 |  | Ki [3]: 0.0061 µM
COc1cccc(C(C)c2c(CCN(C)C)sc3ccccc23)n1 (racemic) | > 10 | > 10 | 0.059 | > 5 |  |  | 
CC(c1ccccn1)c1c(CCN(C)C)sc2ccccc12 (racemic) | > 10 | 1.4 | 0.012 | > 5 | 6.9 |  | 
C[C@H](c1cccnc1Cl)c1c(CCN(C)C)sc2ccccc12 | > 10 | > 10 | 0.0029 | > 5 | 9.5 | 1.5 | 
C[C@H](c1c(CCN(C)C)sc2ccccc12)n1cccn1 | > 10 | > 10 | 0.0044 | > 5 |  | 2 | Ratio [13]: > 0.7; Activity [14]: inactive; concentration at 4 h [15]: 11 ng/g; Kp at 4 h ([16]; read-out: BPR): 20; Papp [17]: > 21.7 ×10⁻⁶ cm/s; concentration at 4 h [18]: 0.6 ng/mL
CC(c1nccs1)c1c(CCN(C)C)sc2ccccc12 (racemic) | > 10 | 2.07 | 0.035 | > 5 |  |  | 
COc1ncccc1[C@@H](C)c1c(CCN(C)C)sc2ccccc12 | > 10 | > 10 | 0.0029 | > 5 | 9.6 | 1.8 | Activity [19]: 72 min; Ratio [13]: > 0.7; Activity [5]: 37 min; Activity [20]: 6.8%; Activity [14]: inactive; Activity [6]: 56 min; concentration at 4 h [15]: 347 ng/g; Kp at 4 h ([16]; read-out: Ratio): 9; Papp [17]: > 21.7 ×10⁻⁶ cm/s; Activity [7]: 7 min; concentration at 4 h [18]: 37.5 ng/mL; Activity [8]: 7%; Activity [21]: 49 min; Activity [9]: 2.3 min; Activity [22]: 28.3%; Activity [23]: 6.7 min; Activity [10]: 33.1%; Activity [24]: 2.3 min
Cc1cccnc1[C@H](C)c1c(CCN(C)C)sc2ccccc12 | > 10 | > 10 | 0.0093 |  |  |  | 
